Literature values as cited in US7422793B2, “Non-toxic corrosion-protection rinses and seals based on rare earth elements” (University of Dayton, priority 2002, dated 2008).
Values after ≈ are worked out from the molar mass of the structure shown.

conditions: fluoride preparative agents; at or near 25° C. and at or near pH 7; cited from earlier work

| Molecule | Solubility in Water |
| --- | --- |
| F[Si-2](F)(F)(F)(F)F.[Li+].[Li+] [Lithium hexafluorosilicate] | 3.8 × 10^0 mole/L |
| F[Si-2](F)(F)(F)(F)F.[K+].[K+] [Potassium hexafluorosilicate] | 0.0055 mol/L |
| F[Si-2](F)(F)(F)(F)F.[Mg+2] [Magnesium hexafluorosilicate] | 3.9 × 10^0 mole/L |

same assay, conditions: oxidizer sources; at or near 25° C. and at or near pH 7; cited from earlier work

| Molecule | Solubility in Water |
| --- | --- |
| OO [Hydrogen peroxide] | 60 wt. % |

same assay, conditions: pH 7; cited from earlier work

| Molecule | Solubility in Water |
| --- | --- |
| Magnesium hexaniobate | 0.088 mol/L |
| Manganese (II) Fluorosilicate | 4.59 × 10^0 mole/L |
| [F][Sb-]([F])([F])([F])([F])[F].[NH4+] [Ammonium fluoroantimonate] | 4.7 × 10^0 mole/L |
| O=C(O)c1ccccc1C(=O)OO [Monoperoxyphthalic acid] | 10 mol/L (≈ 1820 mg/mL) |
| O=[Se](=O)(O)O [Sodium selenate] | 1.2 × 10^0 mole/L |
| [F][Nb-2]([F])([F])([F])([F])([F])[F].[Li+].[Li+] [Lithium heptafluoroniobate] | 0.5 mol/L |
| [Cs+].[O]=[V](=[O])[O-] [Cesium vanadate] | 0.5 mol/L |
| Rubidium periodate | 0.024 mol/L |
| [Mg+2].[O-][Cl+2]([O-])[O-].[O-][Cl+2]([O-])[O-] [Magnesium chlorate] | 4.3 × 10^0 mole/L |
| F[Si-2](F)(F)(F)(F)F.[Ag+].[Ag+] [Silver (I) hexafluorosilicate] | 1 × 10^0 mole/L |
| [F-].[F-].[F][Zr]([F])([F])[F].[Li+].[Li+] [Lithium hexafluorozirconate] | 0.08 mol/L |
| Rubidium tungstate | 50 mol/L |
| [K+].[O-2].[O-2].[O-2].[Ta+5] [Potassium tantalate] | 0.005 mol/L |
| [Cs+].[O-][I+3]([O-])([O-])[O-] [Cesium periodate] | 0.066 mol/L |
| Potassium tungstate | 142 mol/L |
| [K+].[O-][I+3]([O-])([O-])[O-] [Potassium periodate] | 0.029 mol/L |
| Copper (II) hexafluorosilicate | 7.4 × 10^0 mole/L |
| [F][Al-3]([F])([F])([F])([F])[F].[Na+].[Na+].[Na+] [Sodium hexafluoroaluminate] | 0.0029 mol/L |

| Molecule | Solubility in Water |
| --- | --- |
| [Ce+4].[O-][Cl+3]([O-])([O-])[O-].[O-][Cl+3]([O-])([O-])[O-].[O-][Cl+3]([O-])([O-])[O-].[O-][Cl+3]([O-])([O-])[O-] [Cerium (IV) perchlorate] | 1.0 × 10^0 mole/L |
| Cesium bromate | 0.14 mol/L |
| [Na+].[Na+].[O]=[Sn]([O-])[O-] [Sodium stannate] | 2.3 × 10^0 mole/L |
| Tin (IV) fluoride | 1 × 10^0 mole/L |
| Rubidium hexafluorohafnate | 0.19 mol/L |
| [F][Nb-2]([F])([F])([F])([F])([F])[F].[Na+].[Na+] [Sodium heptafluoroniobate] | 0.05 mol/L |
| [Na+].[Na+].[O-][O-] [Sodium peroxide] | 1 × 10^0 mole/L |
| [Li+].[Li+].[O]=[Sn]([O-])[O-] [Lithium stannate] | 5 × 10^0 mole/L |
| Chloroperoxybenzoic acid | 10 mol/L |
| [Mg+2].[O-][Cl+3]([O-])([O-])[O-].[O-][Cl+3]([O-])([O-])[O-] [Magnesium perchlorate] | 4.4 × 10^0 mole/L |
| Strontium nitrite | 3.8 × 10^0 mole/L |
| [F][Ta-2]([F])([F])([F])([F])([F])[F].[K+].[K+] [Potassium heptafluorotantalate] | 0.3 mol/L |
| Calcium vanadate | 0.5 mol/L |
| [Cs+].[Cs+].[F][Zr-2]([F])([F])([F])([F])[F] [Cesium hexafluorozirconate] | 0.112 mol/L |
| [Cs+].[O-][Cl+3]([O-])([O-])[O-] [Cesium perchlorate] | 0.086 mol/L |
| [F][Zr-2]([F])([F])([F])([F])[F].[K+].[K+] [Potassium hexafluorozirconate] | 0.0812 mol/L |
| [O]=[W](=[O])([OH])[OH] [Tungstic acid] | 0.8 mol/L |
| [Cs+].[Cs+].[O]=[Sn]([O-])[O-] [Cesium stannate] | 1 × 10^0 mole/L |
| [F][Sb-]([F])([F])([F])([F])[F].[K+] [Potassium fluoroantimonate] | 3.7 × 10^0 mole/L |
| O=[Se](=O)(O)O [Selenic acid] | 60 wt. % |
| [Na+].[O]=[Al-]=[O] [Sodium aluminate] | 1 × 10^0 mole/L |

| Molecule | Solubility in Water |
| --- | --- |
| F[Si-2](F)(F)(F)(F)F.[Zn+2] [Zinc hexafluorosilicate] | 1.11 × 10^0 mole/L |
| [Li+].[O]=[Ta](=[O])[O-] [Lithium tantalate] | 0.01 mol/L |
| Potassium vanadate | 1 × 10^0 mole/L |
| [F][Ti-2]([F])([F])([F])([F])[F].[K+].[K+] [Potassium hexafluorotitanate] | 0.06 mol/L |
| Sodium tungstate | 249 mol/L |
| [O-][Cl+3]([O-])([O-])[O-].[O-][Cl+3]([O-])([O-])[O-].[Zn+2] [Zinc perchlorate] | 1 × 10^0 mole/L |
| [F][Sb-]([F])([F])([F])([F])[F].[Na+] [Sodium hexafluoroantimonate] | 4.97 × 10^0 mole/L |
| Potassium arsenate | 0.74 mol/L |
| Strontium bromate | 0.91 mol/L |
| [O-][Cl+3]([O-])([O-])O [Perchloric acid] | 75 wt. % |
| [F][Zr-2]([F])([F])([F])([F])[F].[Na+].[Na+] [Sodium hexafluorozirconate] | 0.06 mol/L |
| [O-][Cl+2]([O-])[O-].[O-][Cl+2]([O-])[O-].[Sr+2] [Strontium chlorate] | 6.9 × 10^0 mole/L |
| [F][Sb-]([F])([F])([F])([F])[F].[Li+] [Lithium hexafluoroantimonate] | 1 × 10^0 mole/L |
| O=N[O-].O=N[O-].[Mg+2] [Magnesium nitrite] | 1 × 10^0 mole/L |
| O=[As](=O)O[As](=O)=O [Arsenic pentoxide] | 6.5 × 10^0 mole/L |
| Rubidium hexafluorozirconate | 0.0848 mol/L |
| [Cs+].[O-][Cl+2]([O-])[O-] [Cesium chlorate] | 0.29 mol/L |
| [Cs+].[Cs+].[F][Ta-2]([F])([F])([F])([F])([F])[F] [Cesium heptafluorotantalate] | 0.3 mol/L |
| Potassium germanate | 1 × 10^0 mole/L |
| [F-].[F-].[F-].[F-].[F-].[F-].[K+].[K+].[Sn+4] [Potassium hexafluorostannate] | 0.128 mol/L |
| [F-].[F-].[F-].[F-].[F-].[F-].[Na+].[Na+].[Sn+4] [Sodium hexafluorostannate] | 0.01 mol/L |

| Molecule | Solubility in Water |
| --- | --- |
| F[B-](F)(F)F.[Li+] [Lithium tetrafluoroborate] | 5 × 10^0 mole/L |
| [Cs+].[Cs+].[F][Hf-2]([F])([F])([F])([F])[F] [Cesium hexafluorohafnate] | 0.17 mol/L |
| Vanadium pentoxide | 0.044 mol/L |
| O[Te](O)(O)(O)(O)O [Telluric acid] | 0.5 mol/L |
| Potassium superoxide | 1 × 10^0 mole/L |
| Rubidium germanate | 0.5 mol/L |
| [Li+].[Nb+5].[O-2].[O-2].[O-2] [Lithium niobate] | 0.1 mol/L |
| Rubidium stannate | 5 × 10^0 mole/L |
| [Na+].[Na+].[O]=[Mo](=[O])([O-])[O-] [Sodium molybdate] | 215 mol/L |
| Rubidium hexafluorotitanate | 0.025 mol/L |
| F[Si-2](F)(F)(F)(F)F.[NH4+].[NH4+] [Ammonium hexafluorosilicate] | 1.04 × 10^0 mole/L |
| Zinc nitrite | 1 × 10^0 mole/L |
| [O-][Cl+3]([O-])([O-])O [Sodium perchlorate] | 12 mol/L |
| Magnesium tungstate hydrate | 0.72 mol/L |
| [Ca+2].[O-][Cl+3]([O-])([O-])[O-].[O-][Cl+3]([O-])([O-])[O-] [Calcium perchlorate] | 7.9 × 10^0 mole/L |
| [Li+].[Li+].[O]=[Mo](=[O])([O-])[O-] [Lithium molybdate] | 10 mol/L |
| [K+].[K+].[O]=[Mo](=[O])([O-])[O-] [Potassium molybdate] | 775 mol/L |
| O=[Te](=O)([O-])[O-].[Cs+].[Cs+] [Cesium tellurate] | 0.01 mol/L |
| O=[Te](=O)([O-])[O-].[Li+].[Li+] [Lithium tellurate] | 1 × 10^0 mole/L |
